Results published in patent US11542273B2, “Amide compound having bet proteolysis-inducing action and medicinal application thereof” (MITSUBISHI TANABE PHARMA CORPORATION, priority 2018, dated 2023).

Legend:
[1] = test system: human prostate cancer LNCaP cells; experiment: Cytotoxic action on cancer cells (WST-8, 96 hr); type: cell-based; conditions: Homo sapiens, LNCaP, 96 h, read-out: LNCaP cytotoxic activity: IC50
Method: The cytotoxic action of the compound of the present invention against human cancer cells was evaluated in vitro. In this experiment, (+)-JQ1 (Nature volume 468, pages 1067-1073 (23 Dec. 2010)) known to have an inhibitory activity on the binding of BRD4 protein and a ligand therefor was used as a positive control drug. Respective cells were suspended in 10% FBS/RPMI1640, seeded in a 96 well plate and cultured at 5% CO2, 37° C. overnight. A test compound dissolved in DMSO was diluted with 10% FBS/RPMI1640 and added and the cells were further cultured for 96 hr. After culturing, the viable cell number was measured using a cell number measurement WST-8 kit (Kishida Chemical Co., Ltd.). As a control, the measurement was performed under conditions free of the test compound. The cytotoxic activity of the compound of the present invention against human prostate cancer LNCaP cells is shown in IC50 value in Table 1. […] It was calculated from the straight line connecting the cell survival rate at two points enclosing the 50% cell survival rate and the compound concentration. In addition, the cytotoxic activity against respective cancer cells of human acute myeloid leukemia MV-4-11 cell, human chronic myeloid leukemia K562 cell, human multiple myeloma MM.1S cell, human diffuse large B-cell lymphoma SU-DHL-6 cell, human T-cell leukemia Jurkat cells, human Burkitt lymphoma Raji cell, human castration-resistant prostate cancer PC-3 cell, human ovarian cancer A2780 cell, human bladder cancer 5637 cell, human breast cancer ZR-75-1 cell, human triple negative breast cancer MDA-MB-231 cell, human uterine sarcoma MES-SA cell, human gastric cancer SNU-16 cell, human non-small cell lung cancer NCI-H1975 cell, human small cell lung cancer NCI-H82 cell, human large cell lung cancer NCI-H460 cell, human colorectal cancer HCT116 cell, human glioma U-87 MG cell, human pancreatic cancer AsPC-1 cell, and human liver cancer Hep G2 cell is shown in IC50 value in Table 2.

BRD4 protein = BRD4 protein (Homo sapiens (Human), UniProt O60885); experiment: BRD4 protein degradation inducing action in cancer cells (immunofluorescence, Operetta); type: cell-based; conditions: LNCaP cells, 6 hr treatment, fluorescence intensity
Method: The degradation inducing action of the compound of the present invention on BRD4 protein in cancer cells was evaluated in vitro using human prostate cancer LNCaP cells. LNCaP cells were suspended in 10% FBS/RPMI1640, seeded in a 96 well Cell carrier plate (Perkin Elmer) and cultured at 5% CO2, 37° C. overnight. A test compound dissolved in DMSO was diluted with 10% FBS/RPMI1640 and added and the cells were further cultured for 6 hr. After culturing, the cells were immobilized with 4% para-formaldehyde/PBS and further subjected to a permeation treatment with 0.25% Triton X-100/PBS. Thereafter, the cells were blocked with 10% BSA/PBS, a solution containing Anti-Brd4 antibody (Abcam) or Anti-BRD4 (Sigma-Aldrich) as the primary antibody was added and the cells were incubated at 4° C. overnight. Thereafter, as the secondary antibody, a solution containing secondary antibody A shown below was added to Example compounds 1-190, 223 and 224, and a solution containing secondary antibody B shown below was added to Example compounds 191-222, and 0.5 μg/mL Hoechst 33342 (Sigma-Aldrich) and 14 μM Acti-Stain 555 Fluorescent Phalloidin (Cytoskeleton) were further added. After incubation for 1 hr, BRD4 protein amount was measured by Operetta (Perkin Elmer) as fluorescence intensity.
• Anti-Rabbit IgG(H+L), F(ab′)2 Fragment (Alexa Fluor 488 Conjugate) (Cell Signaling Technology), fluorescence intensity was measured at excitation: 495 nm, emission: 519 nm. Secondary Antibody B • Goat anti-Rabbit IgG(H+L) Cross-Adserbed Secondary Antibody (Alexa Fluor 546) (Thermo Fisher Scientific) fluorescence intensity was measured at excitation: 560 nm, emission: 572 nm.
The BRD4 protein degradation inducing activity of the compound of the present invention in LNCaP cells is shown in DC50 value in Table 3. The DC50 value is a concentration of the compound showing 50% fluorescence intensity when the fluorescence intensity thereof under compound untreated condition is 100%. It was calculated from the straight line connecting the fluorescence intensity at two points enclosing the 50% fluorescence intensity and the compound concentration.

| Compound | IC50 [1] [nM] | DC50 (BRD4 protein) [nM] |
| --- | --- | --- |
| COC(=O)C[C@@H]1N=C(c2ccc(-c3ccc(OCC(=O)N[C@H](C(=O)N4C[C@H](O)C[C@H]4C(=O)N[C@@H](C)c4ccc(-c5scnc5C)cc4)C(C)(C)C)cc3)cc2)c2c(sc(C)c2C)-n2c(C)nnc21 [Example 15, methyl [(6S)-4-{4′-[2-({(2S)-1-[(2S,4R)-4-hydroxy-2-({(1S)-1-[4-(4-methyl-1,3-thiazol-5-yl)phenyl]ethyl}carbamoyl)pyrrolidin-1-yl]-3,3-dimethyl-1-oxobutan-2-yl}amino)-2-oxoethoxy][1,1′-biphenyl]-4-yl}-2,3,9-trimethyl-6H-thieno[3,2-f][1,2,4]triazolo[4,3-a][1,4]diazepin-6-yl]acetate] | 0.083 | 0.066 |
| COC(=O)C[C@@H]1N=C(c2ccc(-c3cc(F)cc(C(=O)N[C@H](C(=O)N4C[C@H](O)C[C@H]4C(=O)N[C@@H](C)c4ccc(-c5scnc5C)cc4)C(C)(C)C)c3F)cc2)c2c(sc(C)c2C)-n2c(C)nnc21 [Example 175, methyl {(6S)-4-[2′,5′-difluoro-3′-({(25)-1-[(2S,4R)-4-hydroxy-2-({(1S)-1-[4-(4-methyl-1,3-thiazol-5-yl)phenyl]ethyl}carbamoyl)pyrrolidin-1-yl]-3,3-dimethyl-1-oxobutan-2-yl}carbamoyl)[1,1′-biphenyl]-4-yl]-2,3,9-trimethyl-6H-thieno[3,2-f][1,2,4]triazolo[4,3-a][1,4]diazepin-6-yl}acetate] | 0.3 | 0.5 |
| COC(=O)C[C@@H]1N=C(c2ccc(-c3cncc(C(=O)N[C@H](C(=O)N4C[C@H](O)C[C@H]4C(=O)N[C@@H](C)c4ccc(-c5scnc5C)cc4)C(C)(C)C)n3)cc2)c2c(sc(C)c2C)-n2c(C)nnc21 [Example 167, methyl [(6S)-4-{4-[6-({(2S)-1-[(2S,4R)-4-hydroxy-2-({(1S)-1-[4-(4-methyl-1,3-thiazol-5-yl)phenyl]ethyl}carbamoyl)pyrrolidin-1-yl]-3,3-dimethyl-1-oxobutan-2-yl}carbamoyl)pyrazin-2-yl]phenyl}-2,3,9-trimethyl-6H-thieno[3,2-f][1,2,4]triazolo[4,3-a][1,4]diazepin-6-yl]acetate] | 0.14 | 0.28 |
| CC(=O)NC1N=C(c2ccc(-c3ccc(OCC(=O)N[C@H](C(=O)N4C[C@H](O)C[C@H]4C(=O)N[C@@H](C)c4ccc(-c5scnc5C)cc4)C(C)(C)C)cc3)cc2)c2c(sc(C)c2C)-n2c(C)nnc21 (stereo partly drawn) [Example 34, (2S,4R)-1-[(2S)-2-(2-{[4′-(6-acetamido-2,3,9-trimethyl-6H-thieno[3,2-f][1,2,4]triazolo[4,3-a][1,4]diazepin-4-yl) [1,1′-biphenyl]-4-yl]oxy}acetamido)-3,3-dimethylbutanoyl]-4-hydroxy-N-{(1S)-1-[4-(4-methyl-1,3-thiazol-5-yl)phenyl]ethyl}pyrrolidine-2-carboxamide] | 0.72 | 0.098 |
| COC(=O)C[C@@H]1N=C(c2ccc(-c3ccc4cc(C(=O)N[C@H](C(=O)N5C[C@H](O)C[C@H]5C(=O)N[C@@H](C)c5ccc(-c6scnc6C)cc5)C(C)(C)C)oc4c3)cc2)c2c(sc(C)c2C)-n2c(C)nnc21 [Example 164, methyl [(6S)-4-{4-[2-({(2S)-1-[(2S,4R)-4-hydroxy-2-({(1S)-1-[4-(4-methyl-1,3-thiazol-5-yl)phenyl]ethyl}carbamoyl)pyrrolidin-1-yl]-3,3-dimethyl-1-oxobutan-2-yl}carbamoyl)-1-benzofuran-6-yl]phenyl}-2,3,9-trimethyl-6H-thieno[3,2-f][1,2,4]triazolo[4,3-a][1,4]diazepin-6-yl]acetate] | 0.077 | 0.066 |
| COC(=O)C[C@@H]1N=C(c2ccc(-c3ccc(C(=O)N[C@H](C(=O)N4C[C@H](O)C[C@H]4C(=O)N[C@@H](C)c4ccc(-c5scnc5C)cc4)C(C)(C)C)c(C)c3)cc2)c2c(sc(C)c2C)-n2c(C)nnc21 [Example 183, methyl {(6S)-4-[4′-({(2S)-1-[(2S,4R)-4-hydroxy-2-({(1S)-1-[4-(4-methyl-1,3-thiazol-5-yl)phenyl]ethyl}carbamoyl)pyrrolidin-1-yl]-3,3-dimethyl-1-oxobutan-2-yl}carbamoyl)-3′-methyl[1,1′-biphenyl]-4-yl]-2,3,9-trimethyl-6H-thieno[3,2-f][1,2,4]triazolo[4,3-a][1,4]diazepin-6-yl}acetate] | 1.5 | 0.93 |
| Cc1ncsc1-c1ccc([C@H](C)NC(=O)[C@@H]2C[C@@H](O)CN2C(=O)[C@@H](NC(=O)COc2ccc(-c3ccc(C4=NC(O)c5nnc(C)n5-c5sc(C)c(C)c54)cc3)cc2)C(C)(C)C)cc1 (stereo partly drawn) [Example 30, (2S,4R)-4-hydroxy-1-[(2S)-2-(2-{[4′-(6-hydroxy-2,3,9-trimethyl-6H-thieno[3,2-f][1,2,4]triazolo[4,3-a][1,4]diazepin-4-yl)[1,1′-biphenyl]-4-yl]oxy}acetamido)-3,3-dimethylbutanoyl]-N-{(1S)-1-[4-(4-methyl-1,3-thiazol-5-yl)phenyl]ethyl}pyrrolidine-2-carboxamide] | 0.99 | 0.43 |
| Cc1ncsc1-c1ccc([C@H](C)NC(=O)[C@@H]2C[C@@H](O)CN2C(=O)[C@@H](NC(=O)C#Cc2ccc(C3=N[C@@H](C)c4nnc(C)n4-c4sc(C)c(C)c43)cc2)C(C)(C)C)cc1 [Example 198, (2S,4R)-1-{(2S)-3,3-dimethyl-2-[(3-{4-[(6S)-2,3,6,9-tetramethyl-6H-thieno[3,2-f][1,2,4]triazolo[4,3-a][1,4]diazepin-4-yl]phenyl}prop-2-ynoyl)amino]butanoyl}-4-hydroxy-N-{(1S)-1-[4-(4-methyl-1,3-thiazol-5-yl)phenyl]ethyl}pyrrolidine-2-carboxamide] | 0.061 | 0.058 |
| COC(=O)C[C@@H]1N=C(c2ccc(N3CCN(c4cccc(C(=O)N[C@H](C(=O)N5C[C@H](O)C[C@H]5C(=O)N[C@@H](C)c5ccc(-c6scnc6C)cc5)C(C)(C)C)n4)CC3)cc2)c2c(sc(C)c2C)-n2c(C)nnc21 [Example 177, methyl [(6S)-4-(4-{4-[6-({(2S)-1-[(2S,4R)-4-hydroxy-2-({(1S)-1-[4-(4-methyl-1,3-thiazol-5-yl)phenyl]ethyl}carbamoyl)pyrrolidin-1-yl]-3,3-dimethyl-1-oxobutan-2-yl}carbamoyl)pyridin-2-yl]piperazin-1-yl}phenyl)-2,3,9-trimethyl-6H-thieno[3,2-f][1,2,4]triazolo[4,3-a] [1,4]diazepin-6-yl]acetate] | 0.36 | 0.23 |
| COC(=O)C[C@@H]1N=C(c2ccc(-c3ccc(OCC(=O)N[C@H](C(=O)N4C[C@H](O)C[C@H]4C(=O)N[C@@H](C)c4ccc(-c5scnc5C)cc4)C(C)(C)C)cc3C)cc2)c2c(sc(C)c2C)-n2c(C)nnc21 [Example 49, methyl [(6S)-4-{4′-[2-({(2S)-1-[(2S,4R)-4-hydroxy-2-({(1S)-1-[4-(4-methyl-1,3-thiazol-5-yl)phenyl]ethyl}carbamoyl)pyrrolidin-1-yl]-3,3-dimethyl-1-oxobutan-2-yl}amino)-2-oxoethoxy]-2′-methyl[1,1′-biphenyl]-4-yl}-2,3,9-trimethyl-6H-thieno[3,2-f][1,2,4]triazolo[4,3-a] [1,4]diazepin-6-yl]acetate] | 0.12 | 0.24 |
